Measured values taken from patent publication US7235267B1, “Brain cell or nerve cell-protecting agents comprising medicinal ginseng” (priority 1999, dated 2007).
“Also recorded” adds a separate entry of the source.

Assays:
[1] = Cerebral blood flow, brain temperature, blood pressure; conditions: intravenous infusion 60 μg/day
[2] = intravenous administration (Saito et al. 1980); cited from earlier work
[3] = system: SH-SP rats with MCA permanent occlusion; test: Cerebral infarct lesion and brain edema after ginsenoside Rb1 (intravenous or intracerebroventricular); assay type: in vivo, rat; conditions: intravenous 6 μg/day for 28 days after MCA permanent occlusion
Experimental: Male SH-SP rats, at the age of 12-13 weeks, were used. Animals were bred in a room furnished with 12 hours light and dark cycles and water and feeds were supplied ad libitum. The cortical branch of the left middle cerebral artery (MCA) of SH-SP rats were coagulated and cut under inhalation anesthesia. Immediately after MCA permanent occlusion, ginsenoside Rb1 dissolved in physiological saline was infused once intravenously (6 μg or 60 μg), subsequently intravenously infused continuously for 28 days by using an Alza osmotic minipump (6 μg/day or 60 μg/day).
At 32 days after MCA permanent occlusion, the SH-SP rats were anesthetized with chloral hydrate, and they were perfused and fixed transcardially with 0.1 mole phosphate buffer containing 4% paraformaldehyde. The brains were dissected out and cerebrocortical infarct lesions were photographed.
In Japanese Patent Application No. Hei 10-365560, PCT/JP99/02550 (Brain cell or nerve cell-protective agents comprising ginsenoside Rb1), Japanese Patent Application No. Hei 11-340850, PCT/JP99/06804 (Cerebrovascular regeneration/reconstruction promoters and nerve tissue secondary degeneration inhibitors comprising ginsenoside Rb1), the present inventors (Sakanaka and Tanaka) measured areas of the left cerebral hemispheres and the left cerebrocortical infarct lesions on the photographs by using an image analyzer. […]

ischemic brain = test: Oral administration of ginsenoside Rb1 per se, neuroprotective action; assay type: in vivo
Bcl-xL = Bcl-xL expression in primary cultured oligodendrocytes (RT-PCR, immunoblotting); assay type: cell-based, rat
Experimental: In order to investigate whether ginsenoside Rb1 enhances the expression of Bcl-xL in oligodendrocytes or not, for example, ginsenoside Rb1 at the concentrations from 1 fg/ml to 10 pg/ml was added to the primary cultured rat oligodendrocytes. After culture for 6 hours, total RNA was extracted and Bcl-xL mRNA was assayed by RT-PCR. β-actin mRNA was used as an internal standard of RT-PCR. Further, a part of oligodendrocytes was used as a sample for SDS electrophoresis after treatment with ginsenoside Rb1, and anti-apoptotic factor Bcl-xL in the culture well was examined by immunoblotting (Western blotting). Oligodendrocytes were isolated from the mixed brain cell culture by using the forebrain of newborn rats.
In order to investigate whether ginsenoside Rb1 enhances the expression of Bcl-xL in oligodendrocytes or not, for example, ginsenoside Rb1 at the concentration from 1 fg/ml to 10 pg/ml was added to the primary cultured rat oligodendrocytes. After culture for 6 hours, Total RNA was extracted and Bcl-xL mRNA was assayed by RT-PCR. β-actin mRNA was used as an internal standard of RT-PCR. Further, a part of oligodendrocytes was used as a sample for SDS electrophoresis after treating with ginsenoside Rb1, and the amount of anti-apoptotic factor Bcl-xL in the culture well was examined by immunoblotting (Western blotting). The mixed brain cell culture was initiated to isolate oligodendrocytes by using the forebrain of newborn rats.

SMILES: CC(C)=CCC[C@](C)(O[C@@H]1O[C@H](CO[C@@H]2O[C@H](CO)[C@@H](O)[C@H](O)[C@H]2O)[C@@H](O)[C@H](O)[C@H]1O)[C@H]1CC[C@]2(C)[C@@H]1[C@H](O)C[C@@H]1[C@@]3(C)CC[C@H](O[C@@H]4O[C@H](CO)[C@@H](O)[C@H](O)[C@H]4O[C@@H]4O[C@H](CO)[C@@H](O)[C@H](O)[C@H]4O)C(C)(C)[C@@H]3CC[C@]12C [ginsenoside Rb1]
- cerebral blood flow [1]: does not affect
- LD50 [2]: approximately 448 mg/kg
- difference in size between left and right cerebral hemisphere (brain edema) [3]: no difference in size
- cerebral infarct lesions (photographs at 32 days) ([3]; all 8 cases): obviously reduced
- neuroprotective action / protective action on the ischemic brain (ischemic brain): did not show protective effects; also recorded: did not exhibit neuroprotective action; also recorded: did not exhibit any protective action
- expression of Bcl-xL mRNA in oligodendrocytes (Bcl-xL; 100 fg/ml, 6 hours, RT-PCR): obviously enhanced
- concentrations increasing Bcl-xL protein expression in oligodendrocytes (Bcl-xL; FIG. 23): 1 to 100 fg/mL
- Bcl-xL protein in oligodendrocytes (Bcl-xL; immunoblotting after ginsenoside Rb1 addition): increased
